system: HCV RNA replication (replicon cell lines Huh-7, 5.2 and ET); assay: Cell-Based Luciferase Reporter HCV RNA Replication Assay; conditions: Hepatitis C virus, Huh-7, 96 h

Structure (SMILES)	IC50
CC1CCC(C(=O)N(c2cc(C3=CC4CCC3C4)sc2C(=O)O)C2CCC(O)CC2)CC1 (stereo not drawn) [Compound 28, 5-bicyclo[2.2.1]hept-2-en-2-yl-3-[(4-trans-hydroxy-cyclohexyl)-(4-trans-methyl-cyclohexanecarbonyl)-amino]-thiophene-2-carboxylic acid]	> 25 µM

same assay, conditions: Hepatitis C virus, Huh-7, 96 h, Huh-7, 5.2 or ET replicon cells, luciferase counts after 4 days incubation; read-out: IC50

Structure (SMILES)	IC50
C[C@H]1CC[C@H](C(=O)N(c2cc(C3=CCCC3)sc2C(=O)O)[C@H]2CC[C@H](O)CC2)CC1 [Compound 3, 5-Cyclopent-1-enyl-3-[(trans-4-hydroxy-cyclohexyl)-(trans-4-methyl-cyclohexanecarbonyl)-amino]-thiophene-2-carboxylic acid]	< 5 µM
C[C@H]1CC[C@H](C(=O)N(c2cc(C3=CCCCCC3)sc2C(=O)O)[C@H]2CC[C@H](O)CC2)CC1 [Compound 5, 5-Cyclohept-1-enyl-3-[(trans-4-hydroxy-cyclohexyl)-(trans-4-methyl-cyclohexanecarbonyl)-amino]-thiophene-2-carboxylic acid]	< 5 µM
C[C@H]1CC[C@H](C(=O)N(c2cc(C3CCCCCC3)sc2C(=O)O)[C@H]2CC[C@H](O)CC2)CC1 [Compound 6, 5-Cycloheptyl-3-[(trans-4-hydroxy-cyclohexyl)-(trans-4-methyl-cyclohexanecarbonyl)-amino]-thiophene-2-carboxylic acid]	< 5 µM
CC(C)N(c1cc(C2=CCCCC2)sc1C(=O)O)C(=O)[C@H]1CC[C@H](C)CC1 [Compound 7, 5-Cyclohex-1-enyl-3-[isopropyl-(trans-4-methyl-cyclohexanecarbonyl)-amino]-thiophene-2-carboxylic acid]	< 5 µM
C[C@H]1CC[C@H](C(=O)N(c2cc(C3=CCCCC3)sc2C(=O)O)C2CCC(=O)CC2)CC1 [Compound 8, 5-Cyclohex-1-enyl-3-[(trans-4-methyl-cyclohexanecarbonyl)-(4-oxo-cyclohexyl)-amino]-thiophene-2-carboxylic acid]	< 5 µM
C[C@H]1CC[C@H](C(=O)N(c2cc(C3=CCCCC3)sc2C(=O)O)[C@H]2CC[C@@H](O)CC2)CC1 [Compound 9, 5-Cyclohex-1-enyl-3-[(cis-4-hydroxy-cyclohexyl)-(trans-4-methyl-cyclohexanecarbonyl)-amino]-thiophene-2-carboxylic acid]	< 5 µM
C[C@H]1CC[C@H](C(=O)N(c2ccccc2)c2cc(C3=CCCCC3)sc2C(=O)O)CC1 [Compound 10, 5-Cyclohex-1-enyl-3-[(trans-4-methyl-cyclohexanecarbonyl)-phenyl-amino]-thiophene-2-carboxylic acid]	< 5 µM
C[C@H]1CC[C@H](C(=O)N(c2cc(C3=CCCCC3)sc2C(=O)O)C2CCCCC2)CC1 [Compound 11, 5-Cyclohex-1-enyl-3-[cyclohexyl-(trans-4-methyl-cyclohexanecarbonyl)-amino]-thiophene-2-carboxylic acid]	< 5 µM
CO[C@H]1CC[C@H](N(c2cc(C3=CCCCC3)sc2C(=O)O)C(=O)[C@H]2CC[C@H](C)CC2)CC1 [Compound 12, 5-Cyclohex-1-enyl-3-[(trans-4-methoxy-cyclohexyl)-(trans-4-methyl-cyclohexanecarbonyl)-amino]-thiophene-2-carboxylic acid]	< 5 µM
CC1CCC(C(=O)N(c2cc(C3=CCC4(CC3)OCCO4)sc2C(=O)O)C2CCC(O)CC2)CC1 (stereo not drawn) [Compound 14, 5-(1,4,Dioxa-spiro[4.5.]dec-7-en-8-yl)-3-[(trans-4-hydroxy-cyclohexyl)-(trans-4-methyl-cyclohexanecarbonyl)-amino]-thiophene-2-carboxylic acid]	< 5 µM
CC(C)N(C(=O)c1ccc(Cl)cc1Cl)c1cc(C2=CCCC2)sc1C(=O)O [Compound 15, 5-Cyclopent-1-enyl-3-[(2,4-dichloro-benzoyl)-isopropyl-amino]-thiophene-2-carboxylic acid]	> 25 µM
C[C@H]1CC[C@H](C(=O)N(c2cc(C3=CCCC3)sc2C(=O)O)[C@H]2CC[C@H](O)CC2)CC1 [Compound 16, 5-Cyclopent-1-enyl-3-[(trans-4-hydroxy-cyclohexyl)-(trans-4-methyl-cyclohexanecarbonyl)-amino]-thiophene-2-carboxylic acid]	< 5 µM
CO[C@H]1CC[C@H](N(c2cc(C3=CCC(C)(C)CC3)sc2C(=O)O)C(=O)[C@H]2CC[C@H](C)CC2)CC1 [Compound 20, 5-(4,4-Dimethyl-cyclohex-1-enyl)-3-[(trans-4-methoxy-cyclohexyl)-(trans-4-methyl-cyclohexanecarbonyl)-amino]-thiophene-2-carboxylic acid]	< 5 µM
CO[C@H]1CC[C@H](N(c2cc(C3CCC(C)(C)CC3)sc2C(=O)O)C(=O)[C@H]2CC[C@H](C)CC2)CC1 [Compound 21, 5-(4,4-Dimethyl-cyclohexyl)-3-[(trans-4-methoxy-cyclohexyl)-(trans-4-methyl-cyclohexanecarbonyl)-amino]-thiophene-2-carboxylic acid]	< 5 µM
CCO[C@H]1CC[C@H](N(c2cc(C3=CCCCC3)sc2C(=O)O)C(=O)[C@H]2CC[C@H](C)CC2)CC1 [Compound 22, 5-Cyclohex-1-enyl-3-[(trans-4-ethoxy-cyclohexyl)-(trans-4-methyl-cyclohexanecarbonyl)-amino]-thiophene-2-carboxylic acid]	< 5 µM
COC1CCC(N(C(=O)C2CCC(C)CC2)c2cc(C3=CCCCC3)sc2C(=O)O)CC1 (stereo not drawn) [Compound 23, 5-Cyclohex-1-enyl-3-[(cis-4-methoxy-cyclohexyl)-(4-trans-methyl-cyclohexanecarbonyl)-amino]-thiophene-2-carboxylic acid]	< 5 µM
COCO[C@H]1CC[C@H](N(c2cc(C3=CCCCC3)sc2C(=O)O)C(=O)[C@H]2CC[C@H](C)CC2)CC1 [Compound 24, 5-Cyclohex-1-enyl-3-[(trans-4-methoxymethoxy-cyclohexyl)-(trans-4-methyl-cyclohexanecarbonyl)-amino]-thiophene-2-carboxylic acid]	< 5 µM
CC1CCC(C(=O)N(c2cc(C3=CCC(=O)CC3)sc2C(=O)O)C2CCC(O)CC2)CC1 (stereo not drawn) [Compound 25, 3-[(4-trans-hydroxy-cyclohexyl)-(4-trans-methyl-cyclohexanecarbonyl)-amino]-5-(4-oxo-cyclohex-1-enyl)-thiophene-2-carboxylic acid]	5 to 25 µM
CC1CCC(C(=O)N(c2cc(C3=CC/C(=N/OCc4ccccc4)CC3)sc2C(=O)O)C2CCC(O)CC2)CC1 (stereo not drawn) [Compound 26, 5-{4-benzyloxyimino-cyclohex-1-enyl}-3-[(4-trans-hydroxy-cyclohexyl)-(4-trans-methyl-cyclohexanecarbonyl)-amino]-thiophene-2-carboxylic acid]	< 5 µM
CCO/N=C1/CC=C(c2cc(N(C(=O)C3CCC(C)CC3)C3CCC(O)CC3)c(C(=O)O)s2)CC1 (stereo not drawn) [Compound 27, 5-{4-ethoxyimino-cyclohex-1-enyl}-3-[(4-trans-hydroxy-cyclohexyl)-(4-trans-methyl-cyclohexanecarbonyl)-amino]-thiophene-2-carboxylic acid]	< 5 µM
C[C@H]1CC[C@H](C(=O)N(c2cc(C3=CCCCC3)sc2C(=O)O)C2CCOCC2)CC1 [Compound 29, 5-cyclohex-1-enyl-3-[(trans-4-methyl-cyclohexanecarbonyl)-(tetrahydro-pyran-4-yl)-amino]-thiophene-2-carboxylic acid]	< 5 µM

Reference: patent US8674118B2, “Compounds and methods for the treatment or prevention of flavivirus infections” (priority 2005, dated 2014)
